Our source for the refractive index and mass density values is the NIST ThermoML archive (doi:10.1016/j.fluid.2017.10.025).

Data set [1] in a line: refractive index (Na D-line) (dimensionless). The settings on record: 298.15 K; 101.33 kPa; Liquid; 2AWJ refractometer.
The conditions of data set [2]: 293.15 K; 101.33 kPa; Liquid; buoyancy.

± gives the expanded uncertainty stated by the source.

As usually defined, the refractive index is a measure of how strongly the sample bends light. What is called mass density is mass per unit of volume. Turning to `O` [water], in data set [1], the refractive index is listed as 1.3327 ± 0.0002. In addition, in data set [2], the mass density is given as 998.3 ± 0.6 kg/m3.

As to `C=CCO` [2-propenol], the refractive index in data set [1] came to 1.4129 ± 0.0003. In addition, the mass density in data set [2] stood at 855 ± 0.7 kg/m3.
